Test results as given in US11395815B2, “Compound for treating osteoarthritis” (Ascentage Pharma (Suzhou) Co., Ltd., priority 2018, dated 2022).

How the values were obtained:
[1] = system: mouse ACLT model; assay: Weight bearing test in mouse osteoarthritis (ACLT) model; type: in vivo; conditions: for weight bearing % (weight on operated limb versus contralateral unoperated limb): 13 days after first dose
From the text: C57BL/6 mice aged 10 weeks were used for the study (n=12 for each group). Anterior cruciate ligament transection (ACLT) model was used to simulate the pathological condition in OA. To conduct ACLT surgery, the joint capsule of the right rear limb of mice was opened, and the anterior cruciate ligament (ACL) was transected with micro-scissors under a surgical microscope. After irrigation with saline to remove tissue debris, the skin incision was closed. Blank vehicle contained 5% Pluronic F68 (BASF, Germany) in 10 mM phosphate buffered saline (PBS, NaH2PH4/Na2HPO4) with pH adjusted to 7.4. Before each injection and sacrificing at the end point, the function of the limbs was assessed by a weight bearing test. All the mice were sacrificed for pathological evaluation and immunohistochemical staining 13 days after first dosing. Weight bearing test was conducted using a […] model 600MR (IITC Life Science, CA, USA). Briefly, after calibration of the equipment, mice were placed inside the chamber to stand with each hind paw on a scale, allowed to stand for 5-10 s until the readings were stable. The readings reflected the weight that was placed on each hind limb. The ACLT surgery caused osteoarthritis (OA) and decreased the weight placed on the hind limb. The results were expressed as the percentage of the weight placed on the operated limb versus the contralateral unoperated limb (weight bearing %). The value of weight bearing % is expected to be 100 in healthy mice, indicating the same weight placed on both limbs. The value of weight bearing % will decrease to 50˜60 after ACLT surgery due to less weight that could be placed on the operated limb than the unoperated limb. Alleviation of joint pain by […] should be reflected by an increased value of weight bearing %.

[2] = system: mouse ACLT model; assay: Pathological evaluation of mouse joints (safranin O staining) in ACLT model; type: in vivo; conditions: intra-articular, joints taken 13 days after first dosing, safranin O sections
From the text: C57BL/6 mice aged 10 weeks were used for the study (n=12 for each group). Anterior cruciate ligament transection (ACLT) model was used to simulate the pathological condition in OA. To conduct ACLT surgery, the joint capsule of the right rear limb of mice was opened, and the anterior cruciate ligament (ACL) was transected with micro-scissors under a surgical microscope. After irrigation with saline to remove tissue debris, the skin incision was closed. Blank vehicle contained 5% Pluronic F68 (BASF, Germany) in 10 mM phosphate buffered saline (PBS, NaH2PH4/Na2HPO4) with pH adjusted to 7.4. Before each injection and sacrificing at the end point, the function of the limbs was assessed by a weight bearing test. All the mice were sacrificed for pathological evaluation and immunohistochemical staining 13 days after first dosing. Mouse joints were fixed in 4% paraformaldehyde overnight, dehydrated in increasing concentrations of ethanol and embedded in paraffin. Sections (5 μm) were cut from the paraffin blocks and applied to glass slides. The sections were stained for proteoglycans with aqueous safranin O (0.1%) for 5 min, and the specimens were then mounted.

CCN1[C@@H](C(=O)NC23CCC(C(=O)O)(CC2)CC3)[C@H](c2cccc(Cl)c2F)[C@]2(C(=O)Nc3cc(Cl)ccc32)C12CCCCC2 [compound A]
weight bearing % (weight on operated limb versus contralateral unoperated limb) ([1]; 0.01 μmol (1 mM, 10 uL) intra-articular, compared with untreated control (P<0.05) and vehicle control (P<0.0001)): significantly increased value of weight bearing % | weight bearing % (weight on operated limb versus contralateral unoperated limb) ([1]; 0.05 μmol (5 mM, 10 uL) intra-articular, P<0.05 vs 1 mM compound A group): further increase in the value of weight bearing % | weight bearing % (weight on operated limb versus contralateral unoperated limb) ([1]; C57BL/6 mice, ACLT, intra-articular injection, across doses 0.01 and 0.05 μmol): dose-dependent effect in improving weight bearing % | joint pain ([1]; mouse ACLT model, intra-articular injection): significantly relieved the joint pain | cartilage development [2]: increased cartilage development | pathological changes (articular cartilage erosion, proteoglycan loss, thinning and calcification of articular cartilage) [2]: attenuated
